Assay results from PubChem BioAssay (NCI).
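Grown in 96-well plates, cells were treated for 48 hours with each compound at five concentrations. Insufficient inhibition: endpoint recorded as highest concentration tested. TGI: concentration producing complete growth inhibition.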

What was measured:
Experiment in all cases: NCI-60 cell line screen, 48 h
[1] = system: MOLT-4 leukemia
[2] = system: OVCAR-5 ovarian
[3] = system: NCI-H226 lung
[4] = system: COLO 205 colon
[5] = system: BT-549 breast
[6] = system: SF-295 CNS
[7] = system: CAKI-1 renal
[8] = system: ACHN renal
[9] = system: HT29 colon
[10] = system: HCT-116 colon
[11] = system: IGROV1 ovarian
[12] = system: SK-MEL-2 melanoma
[13] = system: UACC-257 melanoma
[14] = system: SW-620 colon
[15] = system: K-562 leukemia
[16] = system: 786-0 renal
[17] = system: HCT-15 colon
[18] = system: U251 CNS
[19] = system: PC-3 prostate
[20] = system: NCI-H460 lung
[21] = system: OVCAR-4 ovarian
[22] = system: NCI-H522 lung
[23] = system: NCI-H23 lung
[24] = system: SK-OV-3 ovarian
[25] = system: A498 renal
[26] = system: UO-31 renal
[27] = system: HS 578T breast
[28] = system: TK-10 renal
[29] = system: EKVX NSCLC
[30] = system: HOP-62 NSCLC
[31] = system: MCF7 breast
[32] = system: A549 NSCLC
[33] = system: MDA-N
[34] = system: SN12C renal
[35] = system: DU-145 prostate
[36] = system: SF-539 CNS
[37] = system: HL-60(TB) leukemia
[38] = system: HCC-2998 colon
[39] = system: RPMI-8226 leukemia
[40] = system: UACC-62 melanoma
[41] = system: MDA-MB-435
[42] = system: LOX IMVI melanoma
[43] = system: MALME-3M melanoma
[44] = system: OVCAR-8 ovarian
[45] = system: T-47D breast
[46] = system: M14 melanoma
[47] = system: SF-268 CNS
[48] = system: SNB-19 CNS
[49] = system: OVCAR-3 ovarian
[50] = system: MDA-MB-231 breast
[51] = system: CCRF-CEM leukemia
[52] = system: NCI/ADR-RES ovarian
[53] = system: RXF 393 renal
[54] = system: SK-MEL-28 melanoma
[55] = system: SK-MEL-5 melanoma
[56] = system: SNB-75 CNS
[57] = system: KM12 colon
[58] = system: SR leukemia

Measured: TGI

NC(=O)Nc1n[nH]c(-c2ccccc2)n1
not listed: [58]
> 100 µM: all other assays above

CC(C)(C)c1ccc(C(O)(c2ccc(C(C)(C)C)cc2)c2ccc(C(C)(C)C)cc2)cc1
not listed: [13] | [53]
> 100 µM: all other assays above
